# According to US11578013B2, “Nitrification inhibitors” (Lincoln University, priority 2020, dated 2023):
# Legend:
# Escherichia coli = test: Antimicrobial susceptibility testing (MIC plate); type: cell-based; conditions: at concentrations used in soil to inhibit nitrification
# Experimental: (§1) To determine if 4-Ethynylanisole specifically targets the ammonium oxidizing bacterium N. europaea we examined the antimicrobial properties of 4-Ethynylanisole against selected bacterial species. Bacteria were routinely grown in Lysogeny broth (LB) (E. coli and B. subtilis), LB-Tween (M. smegmatis), or Rhizobium defined media (G RDM) (M. loti […]). E. coli, B. subtilis, and M. smegmatis were grown overnight (18 hr) at 37° C. with shaking (200 rpm), whereas M. loti […] was grown for 48 hr statically at 28° C. 96-well microtiter plates used for the antimicrobial susceptibility testing were set up as follows; 200 μl of media (or as appropriate) was added to column […]) and 100 μl of media was added to the remaining wells of a polystyrene 96 well plate. 4-Ethynylanisole was added to column 1 at a concentration of 512 μM (or as required) and serially diluted 2-fold (100 μl transfer) into the neighbouring wells, making sure to discard 100 μl from the last well. Thus, resulting in a serial dilution of each compound. […] Plates were incubated at either 37° C., or 28° C. (with shaking as required) for 18-48 hr before determining the MIC.
# Mycobacterium smegmatis = test: Antimicrobial susceptibility testing (MIC plate); type: cell-based; conditions: at concentrations used in soil to inhibit nitrification
# Experimental: as §1
# Mesorhizobium loti R7A = test: Antimicrobial susceptibility testing (MIC plate); type: cell-based; conditions: at concentrations used in soil to inhibit nitrification
# Experimental: as §1
# Bacillus subtilis = test: Antimicrobial susceptibility testing (MIC plate); type: cell-based; conditions: at concentrations used in soil to inhibit nitrification
# Experimental: as §1
# N. europaea cells = test: Oxygen consumption rate of N. europaea whole cells (Oroboros oxygraph); type: cell-based, Nitrosomonas europaea; conditions: 25° C.
# Experimental: To begin to understand the mechanism of action of 4-Ethynylanisole the oxygen consumption rate was measured utilising an Oroborus oxygraphy-2k (Oroboros Instruments). Prior to the experiment, N. europaea cells were grown in ATCC 2265 medium for four days. After which time whole cells of N. europaea were washed extensively as previously described and re-suspended in ATCC 2265 wash buffer (no ammonium) to an OD600 of 0.25. Prior to each experiment being initiated by the addition of a metabolizable energy source (ammonium or hydroxyl amine), the oxygen concentration in the assay suspension (2 ml of cells at OD600 of 0.25) was equilibrated for 2-3 min with air until a stable signal was obtained. Under normal experimental conditions this typically yielded an oxygen concentration of approximately 220 μM. After the oxygen concentration had stabilised in the Oroborus oxygraphy-2k reaction cell, rubber stoppers were subsequently inserted to enclose the system. To initiate respiration, ammonium sulphate (12.5 mM) or hydroxyl amine (6.25 mM) were injected directly into washed cell suspension of N. europaea. […] All measurements were made at 25° C. with stirring at 750 rpm and a data recording interval of 1 s^−1.
# nitrification = test: Table 1 summary: compounds found to work or not work as nitrification inhibitors, Inhib(%); set-up: concentration or dose not given beside the values; conditions: test and rate not given
# Experimental: The phenotypic screening involved assessing the nitrification inhibition potency of the selected 5000 compounds against a key ammonia oxidizing bacterium responsible for ammonia oxidation in the soil, Nitrosomonas europaea, in 96-well microtiter plates. N. europaea cells were grown in the presence of an ammonium source, and the potential of putative nitrification inhibitors to inhibit the production of nitrite (NO2) was measured relative to untreated cells.
# A summary of selected compounds initially found to either work or not work as nitrification inhibitors is detailed in Table 1 below.
# [1] = system: nitrification in the soil; test: Laboratory soil incubation, Templeton sandy loam with synthetic cow urine, nitrate-N
# Experimental: A Templeton sandy loam was used in this experiment. 500 g of soil (dry weight basis) was packed into a pottle. 50 mL of synthetic cow urine with an N concentration of 7 g N/L (comprising about 87% urea-N and 13% glycine-N) was applied to the soil (equivalent to 700 kg N/ha on weight basis, assuming bulk density of 1 g/cm^3 in the top 10 cm of soil). The 700 kg N/ha application was used to simulate the urine-N application rate under a typical dairy cow urine patch in a grazed pasture.
# Control treatments also added to soil were: • urine alone (50 mL); • DMSO (equivalent to 0.9 mL/500 g soil)+urine (50 mL) to determine the effect of DMSO on nitrification rate; • water alone (50 mL) (simulating areas of the soil where no urine was deposited).
# Pottles were covered with lids with breathing holes to allow for gas exchange during incubation. Pottles were incubated at 12° C. Soil moisture content was maintained at field capacity by adjusting on weight basis twice a week.
# Soil samples were collected and were then thoroughly mixed and subsamples were extracted in a potassium chloride solution and analysed for mineral-N. Soil moisture content was also determined. Samples were taken at 30 days after the start of incubation. […]
# [2] = system: nitrification in the soil; test: Soil column study at low rates (Study 3-14): nitrate-N; conditions: day 60
# Experimental: To determine the effect of treating the soil with 4-Ethynylanisole at low rates, e.g. at 1 kg/ha and 2 kg/ha, soil column studies were conducted. The experiment was conducted in cylindrical PVC containers (Diameter=186 mm, Height=240 mm). The containers were filled with soil to half of the container's height (120 mm), leaving 120 mm headspace. The soil was Templeton sandy loam collected from Lincoln University Research Dairy Farm. It was screened using a 5 mm sieve and air-dried to the required moisture level and packed to bulk density of 1 g/cm3.
# The experiment was conducted under controlled conditions. The temperature of the soil columns were maintained at around 12° C. by using a water bath to control the temperature.
# The treatments included Control (Water), Control (animal urine), Control (urine+DMSO), Control (Urine+DCD at 10 kg/ha), Urine+4-Ethynylanisole (at 1 kg/ha) in DMSO, and Urine+4-Ethynylanisole (at 2 kg/ha) in DMSO. Synthetic cow urine was applied at 700 kg N/ha (comprising about 87% urea-N and 13% glycine-N), and 4-Ethynylanisole was applied at 1 or 2 kg/ha equivalent. The treatments were mixed with the soil. Soil moisture was adjusted to 100% field capacity (FC) and maintained between 80 and 100% FC over the duration of the experiment. Soil sampling was conducted on Days 1, 7, 14, 30, and 60. The soil samples were analysed for mineral N.
# Nitrosomonas europaea = test: In vitro screening of nitrite production by Nitrosomonas europaea; type: cell-based
# Experimental: The phenotypic screening involved assessing the nitrification inhibition potency of the selected 5000 compounds against a key ammonia oxidizing bacterium responsible for ammonia oxidation in the soil, Nitrosomonas europaea, in 96-well microtiter plates. N. europaea cells were grown in the presence of an ammonium source, and the potential of putative nitrification inhibitors to inhibit the production of nitrite (NO2) was measured relative to untreated cells. […] Study 1-14
structure (smiles),measurement,setting,value
"C#Cc1ccc(OC)cc1 [4-Ethynylanisole, 1-ethynyl-4-methoxybenzene]",inhibition of bacterial growth,Escherichia coli,did not inhibit
same,inhibition of bacterial growth,Mycobacterium smegmatis,did not inhibit
same,inhibition of bacterial growth,Mesorhizobium loti R7A,did not inhibit
same,inhibition of bacterial growth,Bacillus subtilis,did not inhibit
same,ammonium-driven oxygen consumption,N. europaea cells; ammonium sulphate 12.5 mM,reduced to zero
same,hydroxylamine (H3NO)-driven oxygen consumption,N. europaea cells; hydroxyl amine 6.25 mM,not affected
same,Inhib(%),nitrification,100%
same,nitrate-N concentration in the soil compared with urine alone,"[1]; Study 1-14, 2 to 20 kg/ha, day 30",significantly lower nitrate-N concentrations
same,soil nitrate-N concentration changes with time,"[1]; Study 1-14, range of rates 2, 5, 10, 20 kg/ha, days 1, 14, 30",significant inhibition of nitrate production
same,inhibiting nitrate production compared with DCD,[2]; 1 or 2 kg/ha vs DCD at 10 kg/ha,much more potent than DCD
same,soil nitrate-N concentration compared with urine control,[2]; 1 or 2 kg/ha,significantly lower nitrate-N concentrations
same,rate of nitrite production (OD519 nm),Nitrosomonas europaea; 1.56 μM to 400 μM,significantly reduced
same,IC50,"Nitrosomonas europaea; Nitrosomonas europaea, read-out: IC50 (nitrite production reduced by half)",2400 nM
same,MIC,"Nitrosomonas europaea; Nitrosomonas europaea, read-out: Minimum Inhibitory Concentration (MIC) of nitrite production",25 to 50 µM
